{
  "source": "patent US6086915A",
  "about": "“Compositions and methods of adjusting steroid hormone metabolism through phytochemicals” (priority 1998, dated 2000)",
  "key": {"[1]": {"details": "an hour after oral dose of I3C; cited from earlier work"}, "[2]": {"test_system": "total cytochrome (CYP) enzymes", "assay": "Example 9: total CYP in liver microsomes of rats fed crystalline or processed DIM (Western Blots)", "assay_type": "in vivo, Sprague Dawley rats", "details": "males; 100 mg per kg gavage, 3 consecutive days"}, "Human Cancer Cells": {"test_system": "Human Cancer Cells", "details": "cell culture; cited from earlier work"}, "[3]": {"test_system": "hepatic microsomal metabolism of estrogen", "details": "cited from earlier work"}, "hepatic enzyme": {"test_system": "hepatic enzyme", "details": "one mg/kg of DIM in corn oil, fed; cited from earlier work"}, "[4]": {"assay": "DIM stability in simulated gastric environment and shelf-life conditions", "assay_type": "physicochemical", "source_text": "Therefore the need exists for a bioavailable formulation of DIM as well as related dimers and trimers, since hydrophobic substances like DIM are poorly absorbed."}, "p-glycoprotein": {"test_system": "p-glycoprotein", "details": "cited from earlier work"}, "cultured liver cells": {"test_system": "cultured liver cells", "details": "added directly to cultured liver cells; cited from earlier work"}, "[5]": {"test_system": "CYP enzymes in colonic epithelium", "details": "in diet, mixed with feed; cited from earlier work"}, "[6]": {"assay": "solubility in water and in oil", "assay_type": "physicochemical"}, "CYP 1A1/1A2 and 1B1": {"test_system": "CYP 1A1/1A2 and 1B1", "assay": "Example 10: immunoblot of CYP enzyme induction in uterine and hepatic microsomes after feeding", "assay_type": "in vivo, Sprague-Dawley female rats", "protocol": "CYP enzyme induction was again used as a bio-marker of bioavailability.\nThe study compared the enzyme induction resulting from exposure of female rats to crystalline DIM, I3C and processed DIM at relevant doses in the feed. Levels of CYP 1A1/1A2 and 1B1 were measured in uterine and hepatic microsomes as a surrogate end point of uptake and bioavailability.\nA total of 30 Sprague-Dawley female rats weighing approximately 200 gms were treated as follows:\n1. 5-7 day acclimatization in group cages, feeding on AIN76A minimally inducing diet.\n2. 3 days feeding on same feed mixed with 7 different combinations of dietary indoles.\n3. Sacrifice of animals on about day 10. Harvesting of livers and uteri following perfusion of abdominal organs to remove blood.\n4. Processing of organs to obtain CYP enzyme rich microsomal fraction.\n5. Immunoblot determination of levels of specific CYP enzymes by standard means using existing CYP antibodies.\nMicrosomes from the following groups were assayed:\nOrgan weight was obtained at necropsy. Specific CYP enzyme levels were compared based on standardized densitometry units. […] Results expressed as densitometry units indicating uptake of indole and degree of enzyme induction are listed according to the above groups: […]"}, "[7]": {"details": "cited from earlier work"}, "CYP 1A1/1A2 [8]": {"test_system": "CYP 1A1/1A2", "details": "mice fed I3C; cited from earlier work"}, "[9]": {"test_system": "2-hydroxylation of estradiol", "details": "animals; cited from earlier work"}, "[10]": {"test_system": "2-hydroxylation of estradiol", "details": "cited from earlier work; for shift of estrogen metabolism: I3C, oral"}, "CYP 1A1/1A2 [11]": {"test_system": "CYP 1A1/1A2", "details": "rats fed I3C; cited from earlier work"}, "CYP": {"test_system": "CYP", "details": "cited from earlier work"}, "[12]": {"details": "oil, organic solvent or mixture, read-out: solubility in oil"}, "[13]": {"details": "water, read-out: solubility in water"}},
  "note": "“Also recorded” adds a separate entry of the source. Where two headings read alike, the source gives them in different places.",
  "data": [
    {"compound": "c1ccc2c(Cc3[nH]c4ccccc4c3Cc3c[nH]c4ccccc34)c[nH]c2c1", "note": "[2,3-bis[3-indolylmethyl]indole]", "values": [
      {"measurement": "detection in gastric contents and stomach tissue", "setting": "[1]", "value": "detected in gastric contents and stomach tissue"}
    ]},
    {"compound": "c1ccc2c(Cc3c[nH]c4ccccc34)c[nH]c2c1", "note": "[DIM, 3,3'-diindolylmethane]", "values": [
      {"measurement": "Total CYP (nmol/mg protein), Percent of Control", "setting": "[2]", "value": 140, "unit": "%"},
      {"measurement": "apoptosis", "setting": "Human Cancer Cells", "value": "able to support the cancer preventive behavior of apoptosis"},
      {"measurement": "dose below which activity is lost", "setting": "[3]; DIM in the diet / in sesame oil", "value": "below 5 mg per kg"},
      {"measurement": "potency in influencing estrogen metabolism, DIM over I3C", "setting": "[3]; fed to rats", "value": "increased potency of DIM over I3C"},
      {"measurement": "lowest dose with enzyme inductive effects", "setting": "[3]; injected intraperitoneally", "value": 0.3, "unit": "mg per kg"},
      {"measurement": "detection in gastric contents and stomach tissue", "setting": "[1]", "value": "detected in gastric contents and stomach tissue"},
      {"measurement": "hepatic enzyme induction", "setting": "hepatic enzyme", "value": "no hepatic enzyme induction"},
      {"measurement": "shelf stability", "setting": "[4]; accelerated shelf-life conditions", "value": "shelf stable"},
      {"measurement": "indolocarbazole generation", "setting": "[4]; digestion, gastric acid, or accelerated shelf-life conditions", "value": "No indolocarbazole is generated"},
      {"measurement": "stability during passage through a simulated gastric environment", "setting": "[4]; simulated gastric environment", "value": "entirely stable"},
      {"measurement": "p-glycoprotein function", "setting": "p-glycoprotein; cell culture and in vivo", "value": "Inhibition of the function of the p-glycoprotein"},
      {"measurement": "effectiveness of chemotherapy drugs in multiply resistant cancer cells", "setting": "p-glycoprotein", "value": "increase the effectiveness of chemotherapy drugs in multiply resistant cancer cells; also recorded: increased effectiveness of chemotherapeutic compounds in multiply resistant cancer cells"},
      {"measurement": "interaction with p-glycoprotein membrane structure", "setting": "p-glycoprotein; molecular probe", "value": "direct interaction of DIM with the p-glycoprotein membrane structure"},
      {"measurement": "CYP enzyme induction", "setting": "cultured liver cells", "value": "powerful CYP enzyme-inducer"},
      {"measurement": "CYP enzyme induction in colonic epithelium", "setting": "[5]", "value": "failed to induce CYP enzymes in colonic epithelium"},
      {"measurement": "solubility", "setting": "[6]; [12]", "value": 100, "unit": "µg/mL"},
      {"measurement": "solubility", "setting": "[6]; [13]", "value": 2.5, "unit": "µg/mL"},
      {"measurement": "CYP enzyme induction, Densitometry Units", "setting": "CYP 1A1/1A2 and 1B1; DIM high 10 mg/kg/day, crystalline, in feed 3 days", "value": 0, "unit": "Densitometry Units"},
      {"measurement": "CYP enzyme induction, Densitometry Units", "setting": "CYP 1A1/1A2 and 1B1; DIM low 2 mg/kg/day, crystalline, in feed 3 days", "value": 0, "unit": "Densitometry Units"}
    ]},
    {"compound": "OCc1c[nH]c2ccccc12", "note": "[I3C, indole-3-carbinol]", "values": [
      {"measurement": "loss of the original I3C", "setting": "[7]; aging conditions simulating a one month period, 43800 min", "value": "approximately 50%"},
      {"measurement": "stability", "setting": "[7]; heat, light, moisture, or acidic environments", "value": "unstable and subject to spontaneous breakdown"},
      {"measurement": "hepatic and intestinal levels of CYP 1A1/1A2 enzyme", "setting": "CYP 1A1/1A2 [8]", "value": "increased"},
      {"measurement": "2-hydroxylation of estradiol", "setting": "[9]", "value": "increase the 2-hydroxylation of estradiol"},
      {"measurement": "minimum dose", "setting": "[10]; I3C dietary supplement", "value": 300, "unit": "mg per person per day"},
      {"measurement": "shift of estrogen metabolism", "setting": "[10]", "value": "beneficially shift estrogen metabolism to favor 20 H estrone"},
      {"measurement": "shift of estrogen metabolism", "setting": "[10]; listed as indole-3-carbinol", "value": "successful in shifting estrogen metabolism to favor 20 H estrone"},
      {"measurement": "2-hydroxylation of estradiol", "setting": "[10]; humans", "value": "increase the 2-hydroxylation of estradiol"},
      {"measurement": "hepatic and intestinal levels of CYP 1A1/1A2 enzyme", "setting": "CYP 1A1/1A2 [11]", "value": "increased"},
      {"measurement": "CYP enzyme induction in colonic epithelium", "setting": "[5]", "value": "powerful inductive activity"},
      {"measurement": "CYP enzyme induction, Densitometry Units", "setting": "CYP 1A1/1A2 and 1B1; I3C high 25 mg/kg/day, in feed 3 days", "value": 5.1, "unit": "Densitometry Units"},
      {"measurement": "CYP enzyme induction, Densitometry Units", "setting": "CYP 1A1/1A2 and 1B1; I3C low 5 mg/kg/day, in feed 3 days", "value": 0, "unit": "Densitometry Units"}
    ]},
    {"compound": "Clc1cc2c(cc1Cl)Oc1cc(Cl)c(Cl)cc1O2", "note": "[TCDD, 2,3,7,8-Tetrachlorodibenzo-P-Dioxin]", "values": [
      {"measurement": "CYP enzyme induction, Densitometry Units", "setting": "CYP 1A1/1A2 and 1B1; positive control, by gavage", "value": 251.7, "unit": "Densitometry Units"}
    ]},
    {"compound": "COc1ccc(-c2cc(=O)c3c(OC)c(OC)c(OC)c(OC)c3o2)cc1", "note": "[Tangeretin, 5,6,7,8,4'-pentamethoxyflavone]", "values": [
      {"measurement": "CYP induction", "setting": "CYP; dietary intake", "value": "associated with CYP induction"}
    ]},
    {"compound": "O=c1cc(-c2ccccc2)oc2cc(O)cc(O)c12", "note": "[chrysin, 5,7-Dihydroxyflavone, reference compound]", "values": [
      {"measurement": "CYP-related effects in rat livers", "setting": "CYP; two weeks oral intake at 300 mg/kg of body weight", "value": "no CYP-related effects were noted in rat livers"},
      {"measurement": "solubility", "setting": "[6]; [12]", "value": 50, "unit": "µg/mL"},
      {"measurement": "solubility", "setting": "[6]; [13]", "value": 0.7, "unit": "µg/mL"}
    ]}
  ]
}
